Laboratory results reported in US5912230A, “Anti-fungal and anti-bacterial histatin-based peptides” (priority 1998, dated 1999).
Where no end group is shown, it is not given here.

Key:
[1] = system: C. albicans blastoconidia; conditions: for C. albicans: % killing at 50 μM dose (scoring): highest response seen used in the scoring; for anti-fungal (fungicidal) activity, in words: C. albicans blastoconidia; for C. albicans: LD50 (μM) for % killing: blastoconidia, 1 h at 37° C., pH 7.4
Description: C. albicans is a dimorphic yeast. It can exist in a yeast or blastoconidial form, which upon germination develops into the hyphal or germinated form. While the germinated form is considered to be more invasive, most of the C. albicans isolates harvested from the oral cavities of healthy individuals appear to be in the blastoconidial form. (Arendorf, T. M. et al. (1980), Arch. Oral Biol. 25:1-10; Gow, N.A.R. et al. (1987), Criti. Rev. Microbiol. 15:73-78; Odds, F. C. (1988), Candida and Candidosis, 2nd ed., Bailliere Tindall, London, England). Anti-fungal activity of synthetic histatin 5, histatin-based peptide 113, peptides based on portions of the amino acid sequences of histatin-based peptide 113 and peptides derived from histatin-based peptide 113 with specified amino acid substitutions was measured in assays designed to test the effectiveness of the peptides against the blastoconidia form of Candida (Table 1). These assays, which measure killing of blastoconidia of C. albicans, are described in Xu et al., which is herein incorporated by reference. (Xu, T. et al. (1991), Infect. Immun. 59(8):2549-2554).
A well-described strain of C. albicans was used in the bioassay. This strain, ATCC 44505, was originally isolated from the human oral cavity. Cultures were stored at 4° C. on Sabouraud dextrose agar plates (Difco Laboratories, Detroit, Mich.) until use. Stationary phase growth cells were obtained following growth at 30° C. for 18 h on Sabouraud dextrose agar plates. Colonies were harvested and suspended in 10 mM potassium phosphate buffer (PPB), pH 7.4.
To initiate log phase growth, an aliquot of stock C. albicans was suspended in Sabouraud dextrose broth (Difco) and incubated at 30° C. in a shaking water bath. The growth phase was determined by taking aliquots of the culture at one hour intervals to monitor the optical density (O.D.) at 560 nm. […] Log phase cells were harvested and utilized in the blastoconidia killing assay in a manner identical to that described for stationary phase cells. A final concentration of 10^5 cells/ml (either stationary or log phase fungus) was used in all assays.
The standard suspension buffer utilized in the blastospore killing assay was 0.01M PPB, pH 7.4. An alternate suspension buffer, N-2-hydroxyethylpiperazine-N'-2-ethanesulfonic acids (HEPES; Sigma Chemical Co., St. Louis, Mo.), pH 7.4, can also be utilized.
a. For the killing of blastoconidia assay, 50 μl aliquots of cells (2×10^5 cells/ml) diluted in suspension buffer were allowed to attach to a polystyrene 96-well micro-titer plate (COSTAR, Cambridge, Mass.) for 15 min at room temperature, and then incubated with an equal volume of a histatin or histatin peptide in suspension buffer for 1 h at 37° C. Controls were carried out in the absence of the histatin or histatin peptide. After incubation, wells were washed three times by centrifugation at 1,000 xg for 5 min and covered with aliquots of molten Sabouraud dextrose broth (Difco) containing 2% agarose (Sigma) at 45° C. The plate was then incubated at 30° C. for 8 h. Under such conditions, live cells will divide and begin to form colonies, while dead cells will remain as single cells. To determine the percentage of blastoconidia killed, a total of 100 single cells and/or colonies were counted under a Nikon inverted microscope at 400× magnification and the extent of killing was calculated using the formula: [1-(number of colonies in treated sample)/(number of colonies in control)]×100%.
Data were obtained by calculating the mean and standard deviation from triplicate assays.

[2] = system: Porphyromonas gingivalis strain A7A1-28; assay: microdilution bacteriostatic assay (P. gingivalis growth inhibition); type: cell-based; conditions: for P. gingivalis: % increase in time to reach mid logphase growth (0.2 OD): 2 mM dose
Method: (a) The bacteria used in one investigation, Porphyromonas gingivalis strain A7A1-28, is a typical key pathogenic organism associated with destructive periodontal diseases. The bacteria were multiply subcultured in Enriched Todd Hewitt broth (ETHB, Difco Lab., Detroit, Mich.). Microorganisms were stored in the same broths containing 20% and 50% glycerol, at -20° C. and -70° C., respectively. These served as stock cultures from which all preparations originated.
Working stock cultures were maintained by weekly transfer to Brain Heart Infusion Anaerobic Sheep Blood Agar plates (BHIA, Becton Dickinson and Co., Cockeysville, Md.), and Trypticase Soy Anaerobic Sheep Blood Agar plates (TSA, Becton Dickinson and Co., Cockeysville, Md.). Plates were incubated for 3 to 4 days under strictly anaerobic conditions. For the bacteriostatic assay, bacteria were collected from plates, inoculated into the aforementioned broth and grown at 37° C., under strictly anaerobic conditions for 24 to 48 hours.
A modification of the typical microdilution assay (Rotilie et al., 1975) for the determination of minimal inhibitory concentration (MIC) of antimicrobial agents was utilized to investigate the bacteriostatic activity of the peptides. A standardized bacterial inoculum (P. gingivalis) was exposed to serially diluted antimicrobial peptides in an enriched broth medium that was suitable for the growth of anaerobic bacteria. The test was adapted for use in the 96-well microtiter plates. […] The modification introduced here was based on the spectrophotometric reading of the microtiter plate after incubation.
Microorganisms from cultures maintained in the aforementioned plates were inoculated into 5 ml of the above-mentioned broths and cultured overnight at 37° C. under strictly anaerobic conditions with continuous agitation on a minishaker (IKA-Labortechnik, Staufen i. Br., Germany). The bacteria were grown until reaching the late log phase and were then suspended in the same broths to an optical density (O.D.) of 0.1 at 560 nm. The peptides were diluted in 0.01M phosphate buffered saline (PBS), pH 7. Forty μl aliquots of peptide dilutions were added in each well of a U-bottom microtiter plate (Costar, Cambridge, Mass.) to give final concentrations of 2000, 1000, 500 and 250 μM. Twenty μl of bacterial inoculum was added to all the wells. Finally, 100 μl of the suitable broth were added to each well. The optical density of the wells of the microtiter plate was determined using a microplate reader set at 550 nm and the plate was then incubated under strictly anaerobic conditions for 24 hours. Controls were made by replacing the peptide dilutions with PBS alone. After the incubation, the mixtures in each well were mixed manually to resuspend sedimented bacteria and the plate was read again. The experiments were conducted twice every time. The biologic activity was calculated according to the formula:
100-[[(Fin ODexp-In ODexp)/(Fin ODctr-In ODctr)]×100]
In addition, the % increase in time to reach midlog phase growth was calculated.
The data presentation represent the means (±SEM) of at least 2 separate experiments.

Substance	C. albicans: % killing at 50 μM dose (scoring) [1]	P. gingivalis growth inhibition, in words [2]	anti-fungal (fungicidal) activity, in words [1]	C. albicans: LD50 (μM) for % killing [1] [µM]	anti-fungal activity at pH 4.0, in words ([1]; pH 4.0)	P. gingivalis: % increase in time to reach mid logphase growth (0.2 OD) [2] [%]
His 11: histatin 11 (SEQ ID NO: 11), subpeptide of peptide 113 (KRHHGYKR)	+ (+<20%)	P. gingivalis growth inhibition	–	–	–	–
AKRHHGYKR [peptide 120]	++ (++20-50%)	P. gingivalis growth inhibition	C. albicans blastoconidia killing	–	–	–
AKRHHGYKRK [peptide 119]	++ (++20-50%)	P. gingivalis growth inhibition	C. albicans blastoconidia killing	–	–	–
AKRHHGYKRKF [peptide 118]	++++ (++++80-100%)	P. gingivalis growth inhibition	C. albicans blastoconidia killing	–	–	–
peptide 117: subpeptide of peptide 113 (SEQ ID NO: 19) (KRHHGYKRKFH)	++++ (++++80-100%)	P. gingivalis growth inhibition	C. albicans blastoconidia killing	–	–	–
AKRHHGYKRKFH [peptide 113]	–	P. gingivalis growth inhibition	–	5.8	essentially devoid of anti-fungal activity	34.95
KRHHGYKRKF [peptide 129]	–	P. gingivalis growth inhibition	–	27	–	15.4
